# Assay results reported in patent publication US8455469B2, “Use of norgestimate as a selective inhibitor of TRPC3, TRPC6 and TRPC7 ion channels” (Sanofi, priority 2007, dated 2013).
# How the values were obtained:
# [1] = target: T1, TRPC5 (Homo sapiens, UniProt Q9UL62); assay: Whole-cell patch clamp, AlF4- activated TRPC5 HEK293 cells; assay type: cell-based; details: 10 μM 2-APB, used for background calculation
# T1 construct: expressed in transfected cells; host or cells: HEK293 FITR (inducible expression)
# T1 sequence (Q9UL62 1-973): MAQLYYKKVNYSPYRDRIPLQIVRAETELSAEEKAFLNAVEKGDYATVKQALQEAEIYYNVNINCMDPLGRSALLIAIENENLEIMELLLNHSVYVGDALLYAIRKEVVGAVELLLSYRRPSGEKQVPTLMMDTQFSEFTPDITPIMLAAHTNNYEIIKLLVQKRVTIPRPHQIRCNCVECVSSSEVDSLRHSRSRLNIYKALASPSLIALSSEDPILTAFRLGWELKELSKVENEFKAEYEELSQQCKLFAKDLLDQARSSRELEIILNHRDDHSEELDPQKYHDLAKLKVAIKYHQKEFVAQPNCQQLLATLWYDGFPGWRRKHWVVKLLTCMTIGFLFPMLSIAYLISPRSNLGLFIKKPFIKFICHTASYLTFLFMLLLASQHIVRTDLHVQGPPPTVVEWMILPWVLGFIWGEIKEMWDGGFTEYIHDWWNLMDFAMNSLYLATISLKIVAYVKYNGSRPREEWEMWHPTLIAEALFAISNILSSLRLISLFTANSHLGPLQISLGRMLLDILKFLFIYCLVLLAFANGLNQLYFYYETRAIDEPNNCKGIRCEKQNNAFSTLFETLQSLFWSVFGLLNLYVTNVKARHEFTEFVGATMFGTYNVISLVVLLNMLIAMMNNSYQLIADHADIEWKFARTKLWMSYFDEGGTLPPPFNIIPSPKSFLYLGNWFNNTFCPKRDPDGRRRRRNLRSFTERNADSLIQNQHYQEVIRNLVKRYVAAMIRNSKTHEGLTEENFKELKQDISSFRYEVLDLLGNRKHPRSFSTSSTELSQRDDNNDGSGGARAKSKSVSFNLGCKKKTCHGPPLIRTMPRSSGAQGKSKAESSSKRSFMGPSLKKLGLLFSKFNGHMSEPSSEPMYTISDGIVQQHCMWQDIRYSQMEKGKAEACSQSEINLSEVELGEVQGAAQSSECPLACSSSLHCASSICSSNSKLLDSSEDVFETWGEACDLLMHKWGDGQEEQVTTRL
# Experimental: Channels were indirectly excited with the same stimulus for better comparability of the norgestimate effect. Aluminium tetrafluoride (AIF^4−) applied intracellularly via the patch pipette activates G-proteins by mimicking GTP (Sternweis & Gilman, 1982; Bigay et al., 1987).
# Since these channels are potentiated by micromolar La^3+ concentrations (Jung et al., 2003), 2-aminoethoxydiphenyl borate (2-APB), a characterized TRPC5 blocker (Xu et al., 2005) was used instead.
# (§1) Effect of 10 μM norgestimate (NG) on whole-cell currents evoked by AlF4^− infusion into induced TRPC6— (A) and TRPC5 HEK 293 (B) cells. Whole cell currents recorded at −70 mV (left panels) and the corresponding current-voltage (I-V) relationships are shown (right panels). […] The curves were obtained during voltage ramps from −100 to +80 mV. (C) Statistical analysis of the norgestimate effect on TRPC5— and TRPC6-mediated currents.
# [2] = target: T2, TRPC6 (Homo sapiens, UniProt Q9Y210); assay: Whole-cell patch clamp, AlF4- activated TRPC6 HEK293 cells; assay type: cell-based; details: 10 μM La3+, used for background calculation
# T2 construct: expressed in transfected cells; host or cells: HEK293 (inducible expression)
# T2 sequence (Q9Y210 1-931): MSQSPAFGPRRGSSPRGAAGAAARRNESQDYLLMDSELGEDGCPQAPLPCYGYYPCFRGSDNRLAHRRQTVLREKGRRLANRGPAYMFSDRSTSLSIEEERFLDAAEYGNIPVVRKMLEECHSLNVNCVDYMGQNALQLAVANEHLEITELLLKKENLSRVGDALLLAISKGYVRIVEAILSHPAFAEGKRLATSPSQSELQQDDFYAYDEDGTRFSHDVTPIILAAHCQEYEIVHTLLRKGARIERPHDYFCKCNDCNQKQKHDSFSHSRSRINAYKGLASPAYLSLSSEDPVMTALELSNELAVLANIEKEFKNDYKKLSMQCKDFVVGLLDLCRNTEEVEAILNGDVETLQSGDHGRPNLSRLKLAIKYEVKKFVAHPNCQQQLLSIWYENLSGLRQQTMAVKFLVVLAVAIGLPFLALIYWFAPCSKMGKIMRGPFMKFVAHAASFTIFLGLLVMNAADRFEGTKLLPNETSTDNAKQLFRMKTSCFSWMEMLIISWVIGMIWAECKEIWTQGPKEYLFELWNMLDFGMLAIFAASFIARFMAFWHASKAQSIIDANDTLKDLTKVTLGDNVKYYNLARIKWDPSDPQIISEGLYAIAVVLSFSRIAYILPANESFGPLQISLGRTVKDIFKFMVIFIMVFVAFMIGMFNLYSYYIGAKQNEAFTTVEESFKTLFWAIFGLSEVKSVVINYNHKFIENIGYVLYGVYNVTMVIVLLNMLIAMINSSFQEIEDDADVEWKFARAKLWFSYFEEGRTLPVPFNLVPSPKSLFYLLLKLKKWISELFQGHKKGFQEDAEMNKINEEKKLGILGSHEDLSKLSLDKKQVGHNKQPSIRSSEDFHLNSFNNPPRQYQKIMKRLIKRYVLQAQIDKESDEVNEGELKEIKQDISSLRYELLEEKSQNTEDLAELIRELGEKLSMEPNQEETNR
# From the text: Inhibition of TRPC6- and TRPC5-mediated Ca^2+ -influx by norgestimate monitored in fluorometric experiments with cell populations was validated and compared with whole-cell patch clamp recordings of single cells. Channels were indirectly excited with the same stimulus for better comparability of the norgestimate effect. Aluminium tetrafluoride (AIF^4−) applied intracellularly via the patch pipette activates G-proteins by mimicking GTP (Sternweis & Gilman, 1982; Bigay et al., 1987). Subsequently TRPC channels are stimulated and mediate non-specific cationic currents (FIG. 3 A, B) When 10 μM norgestimate were applied to activated TRPC6 channels, 89.9 ±3.1% (n=15) of the current measured at resting membrane potential was blocked. This inhibition was reversible as current amplitude increased after norgestimate wash out (FIG. 3 A).
# as §1, with “currents. 10 μM norgestimate inhibit 25.9±5.7% (n=20) of TRPC5-mediated currents and 89.9±3.1% (n=15) of TRPC6-mediated currents (P<0.001, Wilcoxon test, two-sided).” for “currents.”
# [3] = target: T1, TRPC5; details: micromolar concentrations (Jung et al., 2003); cited from earlier work
SMILES,block of TRPC5 channel [1],block of TRPC6 current [2],block of TRPC6 current ([2]; listed as La^3+),effect of micromolar La3+ concentrations on TRPC5 channels [3]
"NCCOB(c1ccccc1)c1ccccc1 [2-APB, 2-aminoethoxydiphenyl borate]",completely and reversibly blocked,,,
[La] [lanthanum],,complete and reversible,completely blocked,potentiated
